Assay results as given in PubChem BioAssay (NCI).
“And” between values parts separate entries of the source, which are not always exact repeats. Equal entries are not always repeated.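 Protocol summary: plate cells (96-well), add compound at 5 concentrations, incubate 48 h, interpolate endpoints linearly. The concentration for 50% growth inhibition is given as GI50. TGI denotes the concentration required for complete inhibition of growth.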 Residues, ends and D or L forms follow the SMILES beside them. *: point of attachment. Cbz = O=C(OCc1ccccc1)*

What was measured:
Assay in all cases: NCI anticancer screen, dose series, 48 h
[1] = system: CCRF-CEM leukemia
[2] = system: SR leukemia
[3] = system: SK-MEL-2 melanoma
[4] = system: SNB-19 CNS
[5] = system: HS 578T breast
[6] = system: SF-268 CNS
[7] = system: PC-3 prostate
[8] = system: MALME-3M melanoma
[9] = system: SN12C renal
[10] = system: SW-620 colon

| SMILES | GI50 [1] | TGI [1] [µM] | GI50 [2] [µM] | TGI [2] [µM] | GI50 [3] [µM] | TGI [3] [µM] | GI50 [4] | TGI [4] [µM] | GI50 [5] [µM] | TGI [5] [µM] | GI50 [6] | TGI [6] [µM] | GI50 [7] | TGI [7] [µM] | GI50 [8] [µM] | TGI [8] [µM] | GI50 [9] | TGI [9] [µM] | GI50 [10] | TGI [10] [µM] |
| --- | --- | --- | --- | --- | --- | --- | --- | --- | --- | --- | --- | --- | --- | --- | --- | --- | --- | --- | --- | --- |
| CN(C)c1ccccc1[CH2][Ga]([Cl])[CH2]c1ccccc1N(C)C | 0.399 µM | 4.82 | 1.23 | 4.69 | 1.13 | 2.87 | 1.44 µM | 2.86 | 1.28 | 5.79 | 1.77 µM | 3.3 | 1.74 µM | 3.63 | 1.75 | 3.32 | 1.31 µM | 2.58 | 1.76 µM | 3.92 |
| O=c1oc2ccc(Br)cc2c(=O)n1-c1ccc(Cl)cc1F | 2.38 µM | 11.7 | 0.798 | > 100 | 0.69 | 4.5 | 0.506 µM | > 100 | 0.553 | 5.69 | 0.917 µM | 9.23 | 1.87 µM | 7.81 | 0.664 | 3.32 | 0.82 µM | 5.16 | 1.84 µM | 11.2 |
| O=C1c2cc(F)ccc2-c2c1c1ccc([N+](=O)[O-])cc1c(=O)n2CCCBr | 15.6 µM | > 100 | 0.0885 | 1.74 | > 100 | > 100 | 8.13 µM | > 100 | > 100 | > 100 | 8.56 µM | > 100 | 28.7 µM | > 100 | 66.3 | > 100 | 27.4 µM | > 100 | 10.2 µM | > 100 |
| COc1cc2nc3cc([N+](=O)[O-])ccc3c(NCCNCC(C)O)c2cc1OC (stereo unspecified) | 0.34 µM | 3.13 | 0.286 | 2.16 | 0.63 | 2.18 | 0.436 µM | 2.74 | 1.45 | 5.51 | 0.469 µM | 2.46 | 0.512 µM | 2.46 | 0.785 | 2.25 | – | – | 0.431 µM | 3.09 |
| CNC(=O)c1cccc(C#Cc2cncnc2Nc2ccc(OCc3cccc(F)c3)c(Cl)c2)c1 | > 25 µM | > 25 | 24.2 | > 25 | 8.82 | > 25 | 6.9 µM | > 25 | 7.47 | > 25 | 4.54 µM | 12.9 | 7.49 µM | > 22.8 | 9.31 | 24.6 | 12 µM | > 25 | 7.16 µM | > 25 |
| COC(=O)[C@@H](C)C[C@H](Cc1ccccc1)NC(=O)c1csc([C@@H](C[C@H](C(C)C)N(C)C(=O)[C@@H](NC(=O)[C@H]2CCCN2C)C2CC2)OC(C)=O)n1 | 0.000586 µM and 0.0025 µM | > 25 | – | > 25 | 0.000505 | – | 0.00125 µM and 0.0025 µM | > 25 | 0.00186 | – | 0.00871 µM and 0.0025 µM | > 25 | 0.000545 µM and 0.0025 µM | > 25 | 4.41 | > 25 | 0.000981 µM and 0.0025 µM | > 25 | 0.000508 µM and 0.0025 µM | > 25 |
| CN(C)CCOc1ccccc1NC1=C(Cl)C(=O)C(Nc2ccccc2OCCN(C)C)=C(Cl)C1=O | 0.966 µM | – | 5.12 | > 100 | 19.2 | > 57 | 24.9 µM | > 49.8 | 29.5 | > 83.1 | 9.76 µM | 36.3 | 9.84 µM | > 31.8 | 3.31 | 12.8 | 0.573 µM | 1.21 | 0.566 µM | 1.24 |
| C=CCOC(=O)Nc1cccn([C@H](CC(C)C)C(=O)NCCC(C)C)c1=O | 26.8 µM | 90.3 | 72.7 | > 100 | > 100 | > 100 | > 100 µM | > 100 | 87.8 | > 100 | 84.8 µM | > 100 | 49.7 µM | > 100 | > 100 | > 100 | > 100 µM | > 100 | > 100 µM | > 100 |
| CN(C)CCS(=O)(=O)Nc1cc(-c2ccc3ncc(C#N)c(Nc4ccc(F)c(Cl)c4)c3c2)cnc1Cl | 0.11 µM | 8.46 | 0.282 | > 100 | 0.173 | 0.532 | 0.248 µM | 2.94 | 0.127 | 1.03 | 0.122 µM | 0.692 | 0.227 µM | 1.72 | 0.0788 | 0.469 | 0.232 µM | > 100 | 0.263 µM | 1.43 |
| CN1C(=O)C2(c3ccccc31)C1CC3C(CO1)C1C2C3(CO)CN1C#N (stereo unspecified) | – | > 100 | – | > 100 | – | > 100 | – | > 100 | – | > 100 | – | > 100 | – | > 100 | – | > 100 | – | > 100 | – | – |
| CC(=O)OCC1OC(n2ncc(=O)[nH]c2=O)C(OC(C)=O)C1OC(C)=O (stereo unspecified) | – | > 100 | – | > 100 | – | – | – | – | – | > 100 | – | > 100 | – | > 100 | – | > 100 | – | > 100 | – | > 100 |
| COc1ccc(OC)c(/C=C/c2ccnc3ccccc23)c1 | – | 5.91 | – | 8.07 | – | – | – | 13.2 | – | 5.72 | – | 18.2 | – | 6.76 | – | 21.5 | – | 17.6 | – | 16.2 |
| Oc1ccccc1/C=N\NC(=S)N/N=C/c1ccccc1O | 0.648 µM | > 100 | 1.67 | > 100 | 13.4 | 55.9 | 2.94 µM | > 100 | 10.7 | 69.6 | 1.08 µM | 44.1 | 5.99 µM | > 100 | – | – | 3.09 µM | 79.5 | 3.54 µM | > 100 |
| CC(C)C[C@@H](C=O)NC(=O)[C@H](CC(C)C)NC(=O)[C@H](CC(C)C)NC(=O)OCc1ccccc1 (Cbz-Leu-Leu-Leu-aldehyde) | 0.378 µM | 64.2 | 0.366 | 86.6 | 0.483 | 3.28 | 0.829 µM | > 100 | 0.437 | > 100 | 0.297 µM | 1.45 | 0.479 µM | 2.91 | – | – | 0.315 µM | 1.01 | 0.355 µM | 2.07 |
